Results as given in the NIST ThermoML archive (doi:10.1021/acs.jced.8b00814).

Details: 101.33 kPa, Liquid, Vibrating tube method

O [water]
Details	mass density [kg/m3]
283.15 K	999.66
308.15 K	994.11
313.15 K	992.32
318.15 K	990.34
323.15 K	988.18
328.15 K	985.87
333.15 K	983.4
338.15 K	980.78
343.15 K	978.02
348.15 K	975.13
353.15 K	972.11
358.15 K	968.95
363.15 K	965.71
